Assay results as given in ChEMBL document CHEMBL5550144, “Lysine-homologue substitution: Impact on antimicrobial activity and proteolytic stability of cationic stapled heptapeptides” (Bioorg Med Chem, 2024).
≈ marks a conversion by molar mass, not a printed value. Positions of bridges follow the written chain, without caps; N, C: chain ends. Non-standard residues stand in square brackets, D forms with d. Residues, ends and D or L forms follow the SMILES beside them. S5 = C=CCCC[C@](C)(N)C(=O)O; Nle = CCCC[C@H](N)C(=O)O; Orn = NCCC[C@H](N)C(=O)O; Dab = NCC[C@H](N)C(=O)O; Dap = NC[C@H](N)C(=O)O

Experiments:
Escherichia coli = test: Antimicrobial activity against Escherichia coli ATCC 25922 assessed as inhibition of bacterial growth measured for 24 hrs by standard broth microdilution method; type: functional
Klebsiella pneumoniae = test: Antimicrobial activity against Klebsiella pneumoniae ATCC 10031 assessed as inhibition of bacterial growth measured for 24 hrs by standard broth microdilution method; type: functional
Shigella dysenteriae = test: Antimicrobial activity against Shigella dysenteriae ATCC 9752 assessed as inhibition of bacterial growth measured for 24 hrs by standard broth microdilution method; type: functional
[1] = Hemolytic activity in human Red blood cells assessed as hemolysis rate at 24 uM incubated for 30 mins by absorbance based analysis relative to control; type: toxicity, cell-based, Erythrocyte; details: read-out: Activity
Pseudomonas aeruginosa = test: Antimicrobial activity against Pseudomonas aeruginosa ATCC 27853 assessed as inhibition of bacterial growth measured for 24 hrs by standard broth microdilution method; type: functional
Salmonella typhimurium = test: Antimicrobial activity against Salmonella enterica subsp. enterica serovar Typhimurium ATCC 14028 assessed as inhibition of bacterial growth measured for 24 hrs by standard broth microdilution method; type: functional
Staphylococcus aureus = test: Antimicrobial activity against Staphylococcus aureus ATCC 6538p assessed as inhibition of bacterial growth measured for 24 hrs by standard broth microdilution method; type: functional
[2] = test system: Staphylococcus epidermidis; test: Antimicrobial activity against Staphylococcus epidermidis ATCC 12228 assessed as inhibition of bacterial growth measured for 24 hrs by standard broth microdilution method; type: functional
Trypsin [3] = target: T1, Trypsin (Homo sapiens, UniProt P07477+P07478+P35030); test: Proteolytic stability of compound assessed as trypsin (unknown origin) mediated drug degradation by measuring half life measured at 10 to 60 mins by HPLC analysis; type: ADME, protein assay; details: time 10-60 min
Trypsin [4] = target: T1, Trypsin; test: Proteolytic stability of compound assessed as trypsin (unknown origin) mediated drug degradation measured at 10 to 60 mins by HPLC analysis; type: ADME, protein assay; details: time 10-60 min, read-out: Drug degradation
Trypsin [5] = target: T1, Trypsin; test: Proteolytic stability of compound assessed as trypsin (unknown origin) mediated drug hydrolysis measured at 10 to 60 mins by HPLC analysis; type: ADME, protein assay; details: time 10-60 min, read-out: Drug degradation
Trypsin [6] = target: T1, Trypsin; test: Proteolytic stability of compound assessed as trypsin (unknown origin) mediated drug degradation by measuring parent compound remaining measured at 10 to 60 mins by HPLC analysis; type: ADME, protein assay; details: time 10-60 min

| SMILES | MIC (Escherichia coli) [mg/L] | MIC (Klebsiella pneumoniae) [mg/L] | MIC (Shigella dysenteriae) [mg/L] | hemolysis at 0.5 h, 24 µM [1] [%] | MIC (Pseudomonas aeruginosa) [mg/L] | MIC (Salmonella typhimurium) [mg/L] | MIC (Staphylococcus aureus) [mg/L] | MIC [2] [mg/L] | half-life (Trypsin [3]) [h] | metabolised (Trypsin [4]) [%] | metabolised (Trypsin [5]) [%] | Stability (Trypsin [6]) [%] |
| --- | --- | --- | --- | --- | --- | --- | --- | --- | --- | --- | --- | --- |
| C[C@@]1(C(=O)N[C@@H](CCCCN)C(N)=O)CCC/C=C/CCC[C@](C)(NC(=O)[C@@H](N)CCCCN)C(=O)N[C@@H](Cc2c[nH]c3ccccc23)C(=O)N[C@@H](CCCCN)C(=O)N[C@@H](CCC(=O)O)C(=O)N1 (H-K[S5]WKE[S5]K-NH2; staple (E) 2-6) | > 100 | > 100 | > 100 | < 0.1 | > 100 | > 100 | > 100 | > 100 |  |  |  |  |
| CCCC[C@@H]1NC(=O)[C@H](CCCCN)NC(=O)[C@H](Cc2c[nH]c3ccccc23)NC(=O)[C@@](C)(NC(=O)[C@@H](N)CCCCN)CCC/C=C/CCC[C@@](C)(C(=O)N[C@@H](CCCCN)C(N)=O)NC1=O (H-K[S5]WK[Nle][S5]K-NH2; staple (E) 2-6) | 25 (≈ 26.3 µM) | 50 (≈ 52.6 µM) | 12.5 (≈ 13.1 µM) | 0.5 | 25 (≈ 26.3 µM) | 50 (≈ 52.6 µM) | 12.5 (≈ 13.1 µM) | 6.3 (≈ 6.62 µM) | 1.33 | > 40 |  |  |
| CCCC[C@@H]1NC(=O)[C@H](CCN)NC(=O)[C@H](Cc2c[nH]c3ccccc23)NC(=O)[C@@](C)(NC(=O)[C@@H](N)CCN)CCC/C=C/CCC[C@@](C)(C(=O)N[C@@H](CCN)C(N)=O)NC1=O (H-[Dab][S5]W[Dab][Nle][S5][Dab]-NH2; staple (E) 2-6) | 25 (≈ 28.8 µM) | 50 (≈ 57.7 µM) | 25 (≈ 28.8 µM) | 0.1 | 50 (≈ 57.7 µM) | 50 (≈ 57.7 µM) | 25 (≈ 28.8 µM) | 12.5 (≈ 14.4 µM) | 4.82 |  | 11 |  |
| CCCC[C@@H]1NC(=O)[C@H](CN)NC(=O)[C@H](Cc2c[nH]c3ccccc23)NC(=O)[C@@](C)(NC(=O)[C@@H](N)CN)CCC/C=C/CCC[C@@](C)(C(=O)N[C@@H](CN)C(N)=O)NC1=O (H-[Dap][S5]W[Dap][Nle][S5][Dap]-NH2; staple (E) 2-6) | 25 (≈ 30.3 µM) | 50 (≈ 60.6 µM) | 25 (≈ 30.3 µM) | 0.2 | 50 (≈ 60.6 µM) | 50 (≈ 60.6 µM) | 12.5 (≈ 15.2 µM) | 25 (≈ 30.3 µM) | 6.38 |  |  | > 90 |
| CCCC[C@@H]1NC(=O)[C@H](CCCN)NC(=O)[C@H](Cc2c[nH]c3ccccc23)NC(=O)[C@@](C)(NC(=O)[C@@H](N)CCCN)CCC/C=C/CCC[C@@](C)(C(=O)N[C@@H](CCCN)C(N)=O)NC1=O (H-[Orn][S5]W[Orn][Nle][S5][Orn]-NH2; staple (E) 2-6) | 25 (≈ 27.5 µM) | 37.5 (≈ 41.2 µM) | 12.5 (≈ 13.7 µM) | 0.4 | 18.8 (≈ 20.7 µM) | 25 (≈ 27.5 µM) | 12.5 (≈ 13.7 µM) | 6.3 (≈ 6.93 µM) | 4.3 |  | 11 |  |
